Results from ChEMBL document CHEMBL1201862, “PubChem BioAssay data set” (2004).
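These data come from cells grown in 96-well plates and exposed to compound for 48 hours at five concentrations. At the GI50, growth is halved.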 Active and inactive are the calls of the source. Cut-off read from the data, not from the text of the source: active = GI50 up to about 1.1 µM and inactive = higher.

What was measured:
Experiment in all cases: growth of human tumour cells (NCI), 48 h
786-0 = tested on: 786-0
CAKI-1 = tested on: CAKI-1
HCC 2998 = tested on: HCC 2998
HOP-62 = tested on: HOP-62
HT-29 = tested on: HT-29
Hs-578T = tested on: Hs-578T
M14 = tested on: M14
MCF7 = tested on: MCF7
MDA-MB-435 = tested on: MDA-MB-435
MDA-N = tested on: MDA-N
MOLT-4 = tested on: MOLT-4
NCI-H226 = tested on: NCI-H226
NCI-H460 = tested on: NCI-H460
SF-295 = tested on: SF-295
SK-MEL-2 = tested on: SK-MEL-2
SNB-75 = tested on: SNB-75
SR = tested on: SR
SW-620 = tested on: SW-620
UO-31 = tested on: UO-31

Measured: GI50

CCc1ccccc1NNc1cc(=O)[nH]c(=O)[nH]1
inactive: 786-0 16.6 µM | CAKI-1 4.09 µM | HCC 2998 16.6 µM | HOP-62 19.3 µM | HT-29 20.8 µM | Hs-578T 28.6 µM | M14 18.5 µM | MCF7 19.4 µM | MDA-MB-435 19.1 µM | MDA-N 17.9 µM | MOLT-4 26.7 µM | NCI-H226 18.5 µM | NCI-H460 22.9 µM | SF-295 17.9 µM | SK-MEL-2 16.6 µM | SNB-75 17.7 µM | SR 30.5 µM | SW-620 18.6 µM | UO-31 17.2 µM

O=C(O)C1=C/C(=C(/c2ccccc2)c2cc(C(=O)O)c(O)c3ccccc23)c2ccccc2C1=O
inactive: 786-0 > 100 µM | CAKI-1 > 100 µM | HCC 2998 > 100 µM | HOP-62 > 100 µM | HT-29 > 100 µM | Hs-578T > 100 µM | M14 > 100 µM | MCF7 > 100 µM | MDA-MB-435 > 100 µM | MDA-N > 100 µM | MOLT-4 > 100 µM | NCI-H226 > 100 µM | NCI-H460 > 100 µM | SF-295 > 100 µM | SK-MEL-2 > 100 µM | SNB-75 > 100 µM | SR > 100 µM | SW-620 > 100 µM | UO-31 > 100 µM

O=[N+]([O-])c1cc2ccc(N(CCO)CCO)nc2nc1N(CCO)CCO
inactive: 786-0 > 100 µM | CAKI-1 > 100 µM | HCC 2998 > 100 µM | HOP-62 > 100 µM | HT-29 > 100 µM | Hs-578T > 100 µM | M14 > 100 µM | MCF7 > 100 µM | MDA-MB-435 > 100 µM | MDA-N > 100 µM | MOLT-4 > 100 µM | NCI-H226 > 100 µM | NCI-H460 > 100 µM | SF-295 > 100 µM | SK-MEL-2 > 100 µM | SNB-75 > 100 µM | SR 46.2 µM | SW-620 > 100 µM | UO-31 > 100 µM

Cc1ccc(-n2cnc(C(=N)C#N)c2N)cc1
inactive: 786-0 > 100 µM | CAKI-1 > 100 µM | HCC 2998 > 100 µM | HOP-62 > 100 µM | HT-29 > 100 µM | Hs-578T > 100 µM | M14 > 100 µM | MCF7 > 100 µM | MDA-MB-435 > 100 µM | MDA-N > 100 µM | MOLT-4 > 100 µM | NCI-H226 > 100 µM | NCI-H460 > 100 µM | SF-295 > 100 µM | SK-MEL-2 > 100 µM | SNB-75 > 100 µM | SR > 100 µM | SW-620 > 100 µM | UO-31 > 100 µM

O=C(NCc1ccccc1)c1cc2ccccc2o/c1=N\c1cccc(C(F)(F)F)c1
inactive: 786-0 29.8 µM | CAKI-1 > 100 µM | HCC 2998 21.2 µM | HOP-62 85.3 µM | HT-29 35.9 µM | Hs-578T > 100 µM | M14 87.3 µM | MCF7 42.5 µM | MDA-MB-435 46 µM | MDA-N 54.8 µM | MOLT-4 23.4 µM | NCI-H226 29.8 µM | NCI-H460 41.2 µM | SF-295 51.3 µM | SK-MEL-2 28.6 µM | SNB-75 74.8 µM | SR 21.1 µM | SW-620 43 µM | UO-31 79.1 µM

CC(=O)c1c2c(cc3c1CC1(Cc4ccccc4C1=O)C3)CCC2 (stereo not given)
inactive: 786-0 22.3 µM | CAKI-1 8.55 µM | HCC 2998 27.5 µM | HOP-62 30.4 µM | HT-29 20.5 µM | Hs-578T 28.8 µM | M14 27.3 µM | MCF7 17.1 µM | MDA-MB-435 22.3 µM | MDA-N 28.6 µM | MOLT-4 10.6 µM | NCI-H226 22.9 µM | NCI-H460 28.6 µM | SF-295 25.2 µM | SK-MEL-2 27.1 µM | SNB-75 32 µM | SR 15.3 µM | SW-620 32.3 µM | UO-31 21.2 µM

CC(=O)OCC1OC(c2c(OC(C)=O)cc(C)c3c(=O)cc(/C(C(C)=O)=C(\C)O)oc23)C(OC(C)=O)C(OC(C)=O)C1OC(C)=O (stereo not given)
inactive: 786-0 > 100 µM | CAKI-1 > 100 µM | HCC 2998 > 100 µM | HOP-62 > 100 µM | HT-29 > 100 µM | Hs-578T 84.9 µM | M14 > 100 µM | MCF7 > 100 µM | MDA-MB-435 > 100 µM | MDA-N > 100 µM | MOLT-4 > 100 µM | NCI-H226 > 100 µM | NCI-H460 > 100 µM | SF-295 > 100 µM | SK-MEL-2 > 100 µM | SNB-75 49.5 µM | SR > 100 µM | SW-620 > 100 µM | UO-31 > 100 µM

O=C1C=C(Nc2nc(O)cc(C(=O)O)n2)c2ccccc2C1=O
inactive: 786-0 > 100 µM | CAKI-1 > 100 µM | HCC 2998 > 100 µM | HOP-62 > 100 µM | HT-29 > 100 µM | Hs-578T > 100 µM | M14 > 100 µM | MCF7 > 100 µM | MDA-MB-435 37.8 µM | MDA-N > 100 µM | MOLT-4 > 100 µM | NCI-H226 > 100 µM | NCI-H460 > 100 µM | SF-295 > 100 µM | SK-MEL-2 > 100 µM | SNB-75 > 100 µM | SR > 100 µM | SW-620 > 100 µM | UO-31 > 100 µM

O=c1[nH]nc(Cc2ccccc2)n1Nc1ccccc1
inactive: 786-0 > 100 µM | CAKI-1 46.3 µM | HCC 2998 > 100 µM | HOP-62 > 100 µM | HT-29 > 100 µM | Hs-578T > 100 µM | MCF7 > 100 µM | MDA-MB-435 > 100 µM | MDA-N > 100 µM | MOLT-4 > 100 µM | NCI-H226 > 100 µM | NCI-H460 > 100 µM | SF-295 > 100 µM | SK-MEL-2 48.4 µM | SNB-75 17.2 µM | SR > 100 µM | SW-620 > 100 µM | UO-31 > 100 µM

CC1(C)CN=C(Nc2cccc(C(F)(F)F)c2)S1
inactive: 786-0 > 100 µM | CAKI-1 > 100 µM | HCC 2998 > 100 µM | HOP-62 > 100 µM | HT-29 > 100 µM | Hs-578T > 100 µM | M14 > 100 µM | MCF7 > 100 µM | MDA-MB-435 > 100 µM | MDA-N > 100 µM | MOLT-4 > 100 µM | NCI-H226 > 100 µM | SF-295 > 100 µM | SK-MEL-2 > 100 µM | SNB-75 > 100 µM | SR 40.2 µM | SW-620 > 100 µM | UO-31 > 100 µM

COC(=O)C1=C(C)NC(CF)=C(C(=O)OC)C1c1cccc2c(=O)c3ccccc3oc12 (stereo not given)
inactive: 786-0 7.38 µM | CAKI-1 11.9 µM | HCC 2998 6.59 µM | HOP-62 11.7 µM | HT-29 3.58 µM | Hs-578T 9.62 µM | MCF7 4.94 µM | MDA-MB-435 3.15 µM | MDA-N 1.92 µM | MOLT-4 5.89 µM | NCI-H226 > 100 µM | NCI-H460 4.48 µM | SF-295 3.31 µM | SK-MEL-2 20.4 µM | SNB-75 8.41 µM | SR 9.4 µM | SW-620 1.73 µM | UO-31 6.59 µM

CCOC(=O)CCc1cccc2c1oc1c(CCNC(=O)OCC3c4ccccc4-c4ccccc43)cccc12
inactive: 786-0 37.2 µM | CAKI-1 12.9 µM | HCC 2998 > 100 µM | HOP-62 16.2 µM | Hs-578T 4.17 µM | M14 38.5 µM | MCF7 36.4 µM | MDA-MB-435 > 100 µM | MDA-N > 100 µM | MOLT-4 > 100 µM | NCI-H226 86.7 µM | NCI-H460 > 100 µM | SF-295 19.6 µM | SK-MEL-2 76.6 µM | SNB-75 13.1 µM | SR 22.5 µM | SW-620 > 100 µM | UO-31 34.9 µM

CC(=O)O[C@@H]1[C@H]2[C@@H](OC(=O)c3ccccc3)[C@@H](C)C[C@]2(O)[C@H](OC(C)=O)[C@@]2(C)[C@@H]3CC(C)(C)C(=O)[C@]3(OC(C)=O)C[C@@]12C
inactive: 786-0 17.1 µM | CAKI-1 13.4 µM | HCC 2998 6.9 µM | HOP-62 10.9 µM | Hs-578T 9.53 µM | M14 20.8 µM | MCF7 > 25 µM | MDA-MB-435 13.8 µM | MDA-N 8.91 µM | MOLT-4 2.09 µM | NCI-H226 > 25 µM | NCI-H460 2.06 µM | SF-295 7 µM | SK-MEL-2 > 25 µM | SNB-75 1.95 µM | SR 20.7 µM | SW-620 24.3 µM | UO-31 13.9 µM

CCCCOP(=O)(OCCCC)/C(C#N)=C/c1ccc(C)o1
inactive: 786-0 37.1 µM | CAKI-1 60.5 µM | HCC 2998 > 100 µM | HOP-62 > 100 µM | HT-29 45.6 µM | Hs-578T 57.4 µM | M14 28.2 µM | MCF7 22.6 µM | MDA-MB-435 32.6 µM | MDA-N 36.9 µM | MOLT-4 63.4 µM | NCI-H226 28 µM | NCI-H460 61.5 µM | SF-295 43.7 µM | SK-MEL-2 31 µM | SNB-75 35.3 µM | SR 51.6 µM | SW-620 95.9 µM
